Data: US20250035641A1, “COMPOSITIONS AND METHODS RELATED TO PROTEIN LABELING” (The Chinese University of Hong Kong, priority 2023, published 2025)

Assays:
HTN-CK2α = HTN-CK2α (Homo sapiens, UniProt P68400); experiment: Chemoenzymatic labelling and mass-shift assay, HTN-CK2α; assay type: cell-based; design: expressed in transfected cells; host or cells: HEK293T (A5, A6); HeLa (A8); details: 1 μM
Text: Ck2α is a well-studied OGT substrate.^17,25 Its Ser347 is conservatively O-GlcNAcylated and this modification was reported to affect its kinase activity.^16,17 We first co-expressed HTN-Ck2α and fOGT in HEK293T cells at different ratio and found the basal O-GlcNAcylation level of HTN-Ck2α was higher than what we detected in the case of HTN-BRD4. Therefore, a lower ratio of fOGT expression (1:100) was selected for the assessment of OGTAC potency (FIG. 9). […] The induction of specific O-GlcNAcylation on HTN-Ck2α was further confirmed by mass-shift assay. […] To validate the direct binding to both fOGT and HTN-Ck2α is critical, we exploited AP 1867 and rhodamine ligand, which bind to fOGT and HTN-Ck2α respectively, to co-treat with OGTAC-1.
For each chemoenzymatic labelling reaction. 2×10^5 HEK293T cells were seed to each well of 6 well plate. After cells attached, transfection reagents and plasmids were prepared and added in DMEM. After 24 h transfection, media were replaced by fresh warm complete media with DMSO or probes. […] The supernatant of lysate was then quantified by bicinchoninic acid (BCA) assay and normalized to 2 mg/mL with 1% SDS in buffer. […]

HTN-BRD4 = target: T1, HTN-BRD4 (Homo sapiens, UniProt O60885+P62942, F37V); experiment: IP-WB of HTN-BRD4 O-GlcNAcylation with truncated 0tfOGT; assay type: cell-based; details: 0tfOGT:HTN-BRD4 system, 4 h
T1 construct: HaloTag fragment; expressed in transfected cells; host or cells: HEK293T
Method: FIGS. 7A-7E: Specificity and reversibility of OGTAC strategy. […] (B), Constructs of fOGT with 13.5 (rounded to 13) TPR and 0TPR-fOGT (0tfOGT). (C). […] (D), Dose-dependent O-GlcNAcylation profile of HTN-BRD4 by OGTAC-4 treatment. HEK293T cells expressing HTN-BRD4:0tfOGT=1:0.05 were treated with an increasing concentration of OGTAC-4 for 4 h. Then, the O-GlcNAcylation level of HTN-BRD4 was assessed by immunoblot after IP using BRD4 antibody. All quantifications are shown as mean±s.e.m. of n=3 biologically independent experiments. (E), Reversible effect of OGTAC-4 on HTN-BRD4 can be achieved by addition of AP1867. HEK293T cells expressing HTN-BRD4:0tfOGT=1:0.05 were pretreated with OGTAC-4 (500 nM) or DMSO for 4 h, and culturing media were replaced by fresh media with DMSO or AP1867 (50 μM) for the indicated time. The quantifications in right panel were conducted by the normalizing the fold-change (OGTAC-4/DMSO) for each post-washout time point to the value of 4 h pre-treatment. All quantifications are shown as mean±s.e.m. of 3 independent biological repeats. Statistical significance was calculated with ordinary one-way ANOVA comparing samples with different transfection conditions or OGTAC-treatment. ns, p≥0.05; *p<0.05; **p<0.01; ***p<0.001; ****p<0.0001.
We next applied OGTAC-4 to the 0tfOGT:HTN-BRD4 system, resulting in an 5-fold increase in O-GlcNAc level on BRD4. […]

Chain of HTN-CK2α (P68400 with tags, fused parts or gaps): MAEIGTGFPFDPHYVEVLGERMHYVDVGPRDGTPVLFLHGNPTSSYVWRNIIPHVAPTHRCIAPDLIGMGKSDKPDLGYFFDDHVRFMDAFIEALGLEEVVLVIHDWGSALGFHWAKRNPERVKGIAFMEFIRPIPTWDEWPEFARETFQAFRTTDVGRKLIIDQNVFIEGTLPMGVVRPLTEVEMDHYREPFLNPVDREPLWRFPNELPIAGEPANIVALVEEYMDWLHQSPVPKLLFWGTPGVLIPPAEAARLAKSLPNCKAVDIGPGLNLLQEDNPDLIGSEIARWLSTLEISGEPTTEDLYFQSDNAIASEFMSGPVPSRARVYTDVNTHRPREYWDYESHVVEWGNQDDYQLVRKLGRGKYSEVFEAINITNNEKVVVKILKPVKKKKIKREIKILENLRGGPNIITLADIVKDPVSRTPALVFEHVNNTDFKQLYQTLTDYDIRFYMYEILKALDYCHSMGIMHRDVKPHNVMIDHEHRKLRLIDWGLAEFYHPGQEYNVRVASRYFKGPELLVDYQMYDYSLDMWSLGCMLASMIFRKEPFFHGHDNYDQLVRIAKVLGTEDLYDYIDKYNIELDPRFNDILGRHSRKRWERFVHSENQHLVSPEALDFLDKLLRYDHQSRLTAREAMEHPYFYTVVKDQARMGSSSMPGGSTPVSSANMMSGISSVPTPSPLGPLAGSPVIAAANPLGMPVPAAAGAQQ
Chain of HTN-CK2α (P62942+O15294 fused P62942:F37V partner): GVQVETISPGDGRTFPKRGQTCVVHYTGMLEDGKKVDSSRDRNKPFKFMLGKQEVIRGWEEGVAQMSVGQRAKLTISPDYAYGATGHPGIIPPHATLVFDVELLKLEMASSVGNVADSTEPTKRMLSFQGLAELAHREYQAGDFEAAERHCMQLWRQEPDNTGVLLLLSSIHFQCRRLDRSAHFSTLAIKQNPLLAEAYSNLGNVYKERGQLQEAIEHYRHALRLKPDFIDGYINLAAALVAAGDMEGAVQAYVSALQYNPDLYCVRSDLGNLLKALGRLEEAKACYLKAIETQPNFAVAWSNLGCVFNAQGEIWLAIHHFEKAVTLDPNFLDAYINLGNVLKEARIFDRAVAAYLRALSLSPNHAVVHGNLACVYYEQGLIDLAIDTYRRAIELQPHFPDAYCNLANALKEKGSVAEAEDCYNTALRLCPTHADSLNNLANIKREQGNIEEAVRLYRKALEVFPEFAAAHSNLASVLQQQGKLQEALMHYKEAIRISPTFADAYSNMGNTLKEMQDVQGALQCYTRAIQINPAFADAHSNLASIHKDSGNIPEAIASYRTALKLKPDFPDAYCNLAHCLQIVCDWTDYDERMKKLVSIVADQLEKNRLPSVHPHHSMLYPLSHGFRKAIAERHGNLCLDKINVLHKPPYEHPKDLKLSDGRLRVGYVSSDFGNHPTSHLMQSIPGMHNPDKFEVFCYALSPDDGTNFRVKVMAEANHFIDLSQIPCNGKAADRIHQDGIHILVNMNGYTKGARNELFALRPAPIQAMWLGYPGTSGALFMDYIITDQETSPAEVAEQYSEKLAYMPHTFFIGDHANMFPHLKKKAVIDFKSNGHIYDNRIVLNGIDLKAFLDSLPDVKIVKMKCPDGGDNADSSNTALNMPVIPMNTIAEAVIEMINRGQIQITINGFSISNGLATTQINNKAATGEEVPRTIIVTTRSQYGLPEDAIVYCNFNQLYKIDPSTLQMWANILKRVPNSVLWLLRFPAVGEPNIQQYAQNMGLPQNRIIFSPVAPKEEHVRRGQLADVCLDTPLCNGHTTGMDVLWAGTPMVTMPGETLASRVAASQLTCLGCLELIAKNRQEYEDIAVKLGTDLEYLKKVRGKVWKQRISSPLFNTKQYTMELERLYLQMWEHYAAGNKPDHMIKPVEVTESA
T1 sequence (P62942 whole entry F37V, stated change not applied, other chains not shown, the tested form may be a part): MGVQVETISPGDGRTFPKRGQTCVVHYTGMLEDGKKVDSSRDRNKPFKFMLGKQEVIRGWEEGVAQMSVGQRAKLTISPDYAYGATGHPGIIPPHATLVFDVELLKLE

SMILES	HTN-CK2α O-GlcNAcylation in mass-shift assay (HTN-CK2α)	fold increase in O-GlcNAc level on BRD4 (HTN-BRD4) [fold]
CC[C@H](C(=O)N1CCCC[C@H]1C(=O)O[C@H](CCc1ccc(OC)c(OC)c1)c1cccc(OCC(=O)NCCOCCOCCCCCCCl)c1)c1cc(OC)c(OC)c(OC)c1 [OGTAC-1, (R)-1-(3-(2-((2-(2-((6-chlorohexyl)oxy)ethoxy)ethyl)amino)-2-oxoethoxy)phenyl)-3-(3,4-dimethoxyphenyl)propyl (S)-1-((S)-2-(3,4,5-trimethoxyphenyl)butanoyl) piperidine-2-carboxylate]	increased HTN-CK2α O-GlcNAcylation	
CC[C@H](C(=O)N1CCCC[C@H]1C(=O)O[C@H](CCc1ccc(OC)c(OC)c1)c1cccc(OCC(=O)NCCCCCCNC(=O)C[C@@H]2N=C(c3ccc(Cl)cc3)c3c(sc(C)c3C)-n3c(C)nnc32)c1)c1cc(OC)c(OC)c(OC)c1 [OGTAC-4, (R)-1-(3-(2-((6-(2-((S)-4-(4-chlorophenyl)-2,3,9-trimethyl-6H-thieno[3,2-f[]8 1,2,4]triazolo[4,3-a][1,4]diazepin-6-yl)acetamido)hexyl)amino)-2-oxoethoxy)phenyl)-3-(3,4-dimethoxyphenyl)propyl (S)-1-((S)-2-(3,4,5-trimethoxyphenyl)butanoyl)piperidine-2-carboxylate]		5
